Key:
Test in all cases: combination Emax (second highest fraction inhibited in the dose matrix, 72 h); higher = more inhibition; extreme values may be limits of the assay
[1] = test system: EC-GI-10 (Esophageal Squamous Cell Carcinoma)
Summary of the method: (§1)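 After 24 hours at 37°C and 5% CO2 in 1536-well plates, cells in DMEM/F12 or RPMI plus 10% FBS received two-drug dose matrices for 72 hours. Viability came from CellTiter-Glo 2.0 luminescence and was scaled as inhibition, anchored at 0 by vehicle wells and at 1 by blank wells. Combination Emax is taken as the second-highest inhibition in the matrix, and Bliss excess as the observed combination effect less EA + EB − EA·EB, with EA and EB the single-agent effects.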

[2] = test system: LB831-BLC (Bladder Carcinoma)
Summary of the method: as §1

[3] = test system: MFE-296 (Endometrial Carcinoma)
Summary of the method: as §1

[4] = test system: DEL (T-Cell Non-Hodgkin's Lymphoma)
Summary of the method: as §1

[5] = test system: SNU-5 (Gastric Carcinoma)
Summary of the method: as §1

[6] = test system: NOS-1 (Osteosarcoma)
Summary of the method: as §1

[7] = test system: CAL-148 (Breast Carcinoma)
Summary of the method: as §1

[8] = test system: HuP-T4 (Pancreatic Carcinoma)
Summary of the method: as §1

[9] = test system: HO-1-N-1 (Oral Cavity Carcinoma)
Summary of the method: as §1

[10] = test system: LNCaP-Clone-FGC (Prostate Carcinoma)
Summary of the method: as §1

[11] = test system: OVCA420 (Ovarian Carcinoma)
Summary of the method: as §1

[12] = test system: B-CPAP (Thyroid Gland Carcinoma)
Summary of the method: as §1

[13] = test system: LS-180 (Colorectal Carcinoma)
Summary of the method: as §1

[14] = test system: MDA-MB-361 (Breast Carcinoma)
Summary of the method: as §1

[15] = test system: AGS (Gastric Carcinoma)
Summary of the method: as §1

[16] = test system: RO82-W-1 (Thyroid Gland Carcinoma)
Summary of the method: as §1

[17] = test system: Hs-578-T (Breast Carcinoma)
Summary of the method: as §1

[18] = test system: KURAMOCHI (Ovarian Carcinoma)
Summary of the method: as §1

[19] = test system: KELLY (Neuroblastoma)
Summary of the method: as §1

[20] = test system: UM-UC-3 (Bladder Carcinoma)
Summary of the method: as §1

Q: With CC1(C)CCC(CN2CCN(c3ccc(C(=O)NS(=O)(=O)c4ccc(NCC5CCOCC5)c([N+](=O)[O-])c4)c(Oc4cnc5[nH]ccc5c4)c3)CC2)=C(c2ccc(Cl)cc2)C1 [Venetoclax] + COc1cc(Nc2ncc3c(n2)-c2ccc(Cl)cc2C(c2c(F)cccc2OC)=NC3)ccc1C(=O)O [Alisertib] (first compound max 1 µM, 7x7, partner max 10 µM) as the compound, how does the “combination Emax” value [1] read?
A: Its value is 0.554.

Q: And the “combination Emax” value [2]?
A: The value was 0.456.

Q: What about the “combination Emax” value [3] of the same compound?
A: Its value is 0.225.

Q: And the “combination Emax” value [4]?
A: The value was 1.

Q: And the “combination Emax” value [5]?
A: Its value is 0.158.

Q: And the “combination Emax” value [6]?
A: The value was 0.575.

Q: What about the “combination Emax” value [7] of the same compound?
A: Its value is 0.74.

Q: What about the “combination Emax” value [8] of the same compound?
A: The value was 0.355.

Q: And the “combination Emax” value [9]?
A: The value was 0.876.

Q: And the “combination Emax” value [10]?
A: The value was 0.298.

Q: And the “combination Emax” value [11]?
A: Its value is 0.326.

Q: What about the “combination Emax” value [12] of the same compound?
A: The value was 0.598.

Q: And the “combination Emax” value [13]?
A: The value was 0.489.

Q: And the “combination Emax” value [14]?
A: Its value is 0.773.

Q: And the “combination Emax” value [15]?
A: The value was 0.557.

Q: And the “combination Emax” value [16]?
A: The value was 0.422.

Q: And the “combination Emax” value [17]?
A: Its value is 0.851.

Q: And the “combination Emax” value [18]?
A: The value was 0.474.

Q: What about the “combination Emax” value [19] of the same compound?
A: The value was 0.998.

Q: What about the “combination Emax” value [20] of the same compound?
A: The value was 0.399.

Q: What does the source list for CC1(C)CCC(CN2CCN(c3ccc(C(=O)NS(=O)(=O)c4ccc(NCC5CCOCC5)c([N+](=O)[O-])c4)c(Oc4cnc5[nH]ccc5c4)c3)CC2)=C(c2ccc(Cl)cc2)C1 [Venetoclax] + C[C@@H]1COCCN1C2=NC(=NC(=C2)C3(CC3)[S@](=N)(=O)C)C4=C5C=CNC5=NC=C4 [AZD6738] (first compound max 1 µM, 7x7, partner max 10 µM)?
A: combination Emax [1]: 0.608; combination Emax [2]: 0.466; combination Emax [3]: 0.387; combination Emax [4]: 0.996; combination Emax [5]: 0.934; combination Emax [6]: 0.67; combination Emax [7]: 0.888; combination Emax [8]: 0.394; combination Emax [9]: 0.871; combination Emax [10]: 0.684; combination Emax [11]: 0.493; combination Emax [12]: 0.631; combination Emax [13]: 0.728; combination Emax [14]: 0.884; combination Emax [15]: 0.72; combination Emax [16]: 0.322; combination Emax [17]: 0.909; combination Emax [18]: 0.567; combination Emax [19]: 0.998; combination Emax [20]: 0.538

Q: Which “combination Emax” value [1] does the source give for CC1(C)CCC(CN2CCN(c3ccc(C(=O)NS(=O)(=O)c4ccc(NCC5CCOCC5)c([N+](=O)[O-])c4)c(Oc4cnc5[nH]ccc5c4)c3)CC2)=C(c2ccc(Cl)cc2)C1 [Venetoclax] + C[C@@H](Nc1cc(F)cc(F)c1)c1cc(C(=O)N(C)C)cc2c(=O)cc(N3CCOCC3)oc12 [AZD8186] (first compound max 1 µM, 7x7, partner max 3 µM) here?
A: Its value is 0.131.

Q: And the “combination Emax” value [2]?
A: The value was 0.182.

Q: What about the “combination Emax” value [3] of the same compound?
A: Its value is 0.0282.

Q: What about the “combination Emax” value [4] of the same compound?
A: Its value is 0.312.

Q: And the “combination Emax” value [5]?
A: The value was 0.406.

Q: What about the “combination Emax” value [6] of the same compound?
A: Its value is 0.462.

Q: And the “combination Emax” value [7]?
A: The value was 0.263.

Q: And the “combination Emax” value [8]?
A: The value was 0.195.

Q: And the “combination Emax” value [9]?
A: The value was 0.152.

Q: What about the “combination Emax” value [10] of the same compound?
A: Its value is 0.809.

Q: What about the “combination Emax” value [11] of the same compound?
A: The value was 0.165.

Q: What about the “combination Emax” value [12] of the same compound?
A: Its value is 0.132.

Q: What about the “combination Emax” value [13] of the same compound?
A: Its value is 0.184.

Q: And the “combination Emax” value [14]?
A: The value was 0.372.

Q: And the “combination Emax” value [15]?
A: Its value is 0.106.

Q: And the “combination Emax” value [16]?
A: Its value is 0.217.

Q: What about the “combination Emax” value [17] of the same compound?
A: The value was 0.734.

Q: And the “combination Emax” value [18]?
A: The value was 0.306.

Q: What about the “combination Emax” value [19] of the same compound?
A: Its value is 1.

Q: And the “combination Emax” value [20]?
A: Its value is 0.164.

Q: Which “combination Emax” value [1] does the source give for CC1(C)CCC(CN2CCN(c3ccc(C(=O)NS(=O)(=O)c4ccc(NCC5CCOCC5)c([N+](=O)[O-])c4)c(Oc4cnc5[nH]ccc5c4)c3)CC2)=C(c2ccc(Cl)cc2)C1 [Venetoclax] + Cc1cc2ncnn2cc1Nc1ncc2c(n1)n(C1CCOCC1)c(=O)n2C [AZD7648] (first compound max 1 µM, 7x7, partner max 10 µM) here?
A: The value was 0.436.

Q: What about the “combination Emax” value [2] of the same compound?
A: The value was 0.241.

Q: What about the “combination Emax” value [3] of the same compound?
A: Its value is 0.147.

Q: And the “combination Emax” value [4]?
A: The value was 0.457.

Q: What about the “combination Emax” value [5] of the same compound?
A: The value was 0.325.

Q: What about the “combination Emax” value [6] of the same compound?
A: Its value is 0.244.

Q: And the “combination Emax” value [7]?
A: The value was 0.447.

Q: What about the “combination Emax” value [8] of the same compound?
A: The value was 0.202.

Q: What about the “combination Emax” value [9] of the same compound?
A: Its value is 0.331.

Q: And the “combination Emax” value [10]?
A: Its value is 0.423.

Q: And the “combination Emax” value [11]?
A: Its value is 0.223.

Q: And the “combination Emax” value [12]?
A: The value was 0.281.

Q: And the “combination Emax” value [13]?
A: The value was 0.275.

Q: And the “combination Emax” value [14]?
A: The value was 0.44.

Q: What about the “combination Emax” value [15] of the same compound?
A: Its value is 0.199.

Q: What about the “combination Emax” value [16] of the same compound?
A: Its value is 0.224.

Q: And the “combination Emax” value [17]?
A: Its value is 0.831.

Q: What about the “combination Emax” value [18] of the same compound?
A: Its value is 0.477.

Q: What about the “combination Emax” value [19] of the same compound?
A: The value was 0.989.

Q: What about the “combination Emax” value [20] of the same compound?
A: The value was 0.139.

Q: Which results are given for CC1(C)CCC(CN2CCN(c3ccc(C(=O)NS(=O)(=O)c4ccc(NCC5CCOCC5)c([N+](=O)[O-])c4)c(Oc4cnc5[nH]ccc5c4)c3)CC2)=C(c2ccc(Cl)cc2)C1 [Venetoclax] + Cn1cnc2c(F)c(Nc3ccc(Br)cc3Cl)c(C(=O)NOCCO)cc21 [Selumetinib] (first compound max 1 µM, 7x7, partner max 3 µM)?
A: combination Emax [1]: 0.313; combination Emax [2]: 0.142; combination Emax [3]: 0.0803; combination Emax [4]: 0.382; combination Emax [5]: 0.453; combination Emax [6]: 0.227; combination Emax [7]: 0.248; combination Emax [8]: 0.352; combination Emax [9]: 0.205; combination Emax [10]: 0.187; combination Emax [11]: 0.403; combination Emax [12]: 0.241; combination Emax [13]: 0.476; combination Emax [14]: 0.155; combination Emax [15]: 0.656; combination Emax [16]: 0.116; combination Emax [17]: 0.822; combination Emax [18]: 0.502; combination Emax [19]: 1; combination Emax [20]: 0.189
